Results from EP0256125A1, “MEANS FOR PREVENTING MICROBIOLOGICAL OVERGROWING OF HARD SURFACE” (priority 1985, dated 1987).

How the values were obtained:
[1] = prior art statement; cited from earlier work
[2] = Solubility in solvents (qualitative); conditions: for Löslichkeit im Alkohol: Alkohol (Ethylalkohol)
[3] = Storage stability (qualitative); format: physicochemical; conditions: result in words
[4] = Acute toxicity in white mice; conditions: mouse, in vivo, ip
weißen Mäusen = assay: Acute toxicity in white mice
Cladosporium resinae = assay: Fungicidal activity, inhibition of mycelium growth on wort agar; format: cell-based
Source text: (§1) Man prüfte die funguzide Aktivität von Zink-bis-(N-vi- nyloxyethyl)dithiocarbamat gegenüber den reinen Pilzkulturen: Gladosporium resinae, Cladosporium cladosporioides, Acremonium corvum, Acremonium charticola, Penicillium charlesii Smith, Walrotiela subiculesa, Geotrichum candidum Link, Oidium, Penicillium crysogenum. Die genannten Pilze wurden von den Oberflächen der Wände und Decken von Bierbrauereien und Werken für die Herstellung von alkoholfreien Getränken ausgeschieden.
(§2) […] In eine der Petri-Schalen wurde Nährboden mit 1 ml Azeton (Kontrolle) gegossen.
(§3) In 18 bis 20 Stunden nach dem Vergießen des Nährbodens in die Petri-Schalen führte man die Inokulation der reinen Pilzkultur durch, die vorher an einem Schräg-Würzeagar während 15 Tage gezüchtet wurden. Die Inkubation führte man bei einer Temperatur von 25 bis 27°C während 5 Tage durch. Danach wurde der Durchmesser der Pilzkolonien gemessen und der Prozentsatz der Hemmung des Wachstums des Myzeliums (S) nach der Abbott -Formel gezählt: [formula] worin dc Durchmesser der Pilzkolonien in Kontrolle ist, de =Durchmesser der Pilzkolonien in einer Schale mit dem Nährboden ist, der Zink-bis-(N-vinyloxyethyl)dithiocarbamat enthält.

Acremonium charticola = assay: as above; format: cell-based
Source text: as §1, §2, §3

Walrotiela subiculesa = assay: as above; format: cell-based
Source text: as §1, §2, §3

Penicillium chrysogenum = assay: as above; format: cell-based
Source text: as §1, §2, §3

[5] = tested on: Cladosporium cladosporioides; assay: as above; format: cell-based
Source text: as §1, §2, §3

Acremonium corvum = assay: as above; format: cell-based
Source text: as §1, §2, §3

[6] = tested on: Penicillium charlesii Smith; assay: as above; format: cell-based
Source text: as §1, §2, §3

Oidium = assay: as above; format: cell-based
Source text: as §1, §2, §3

Geotrichum candidum Link = assay: as above; format: cell-based
Source text: as §1, §2, §3

[7] = tested on: Schimmelpilzen, die die Bewachsung von Oberflächen hervorrufen; assay: Fungicidal activity, summary over all tested fungi; format: cell-based; conditions: day 5
Source text: as §1
Es wurden Lösungen des Zink-bis-(N-vinyloxyethyl)di- thiocarbamats im Azeton verschiedener Konzentration hergestellt, die so berechnet wurde, daß bei der Einführung vor 1 ml Lösung in 10 ml des geschmolzenen Würzeagars (45-50°C) die Konzentration des genannten Stoffes im Medium von 0,0015 bis 0,012% betrug. In eine der Petri-Schalen wurde Nährboden mit 1 ml Azeton (Kontrolle) gegossen.
as §3

p. Escherichiae = assay: Bactericidal activity, growth on agar medium; format: cell-based; conditions: 37°C, 5 Tage
Method: (§4) Die bakterizide Aktivität des Kalium N-(vinyloxyethyl)-dithiocarbamats gegenüber den Bakterien, die von der Oberfläche von Wänden und Decken der Produktionsräume von Brauereien und Fabriken zur Herstellunq von alkoholfreien Getränken ausgeschieden wurden und die zu p.p.Bacillus, Micrococcus, Pseudomonas, Escherichiae gehören, wurde geprüft.
(§5) Es wurden wäßrige Lösungen des genannten Stoffes verschiedener Konzentration hergestellt, die so berechnet wurde, daß bei Einführung von 1 ml der Lösung in 25 ml geschmolzenen agarisierten Nährboden (45-50°C) die Konzentration des Stoffes im Nährboden von 0,003 bis 0,5% betrug. In 18 bis 24 Stunden wurde auf die Oberfläche des Nährbodens 0,1 ml der wäßrigen Suspension der eintägigen reinen Bakterienkulturen aufgetragen, die am Fleisch-Pepton-Agar gezüchtet wurden. Die Suspension wurde gleichmäßig verteilt. In Kontrollschalen wurden 0,1 ml Wasser auf der Oberfläche des Närhbodens verteilt.
(§6) Die Inkubation führte man bei einer Temperatur von 37°C während 5 Tage durch.
(§7) Die effektive Wirkung des Stoffes wurde nach dem Auftreten des Bakterienwachstums an der Oberfläche des Nährbodens bewertet.

p.Micrococcus = assay: Bactericidal activity, growth on agar medium; format: cell-based; conditions: 37°C, 5 Tage
Method: as §4, §5, §6, §7

p.Bacillus = assay: Bactericidal activity, growth on agar medium; format: cell-based; conditions: 37°C, 5 Tage
Method: as §4, §5, §6, §7

p.Pseudomonas = assay: Bactericidal activity, growth on agar medium; format: cell-based; conditions: 37°C, 5 Tage
Method: as §4, §5, §6, §7

[8] = Konzentration des Stoffes 0,0015 %
[9] = Konzentration des Stoffes 0,003 %
[10] = Konzentration des Stoffes 0,006 %
[11] = Konzentration des Stoffes 0,012 %
[12] = Konzentration des Stoffes 0,1 % (0,10)
[13] = Konzentration des Stoffes 0,05 %
[14] = Konzentration des Stoffes 0,15 %

CCCCCCCCn1sccc1=O [2-n-Oktyl-4-isothiazolinon-3]
effektive Konzentration als Biozid für Lack- und Farbstoffe [1]: 0,4 Masse%

C=COCCNC(=S)[S-].[Na+] [Natrium-N-(vinyloxyethyl)dithiocarbamat]
Löslichkeit im Alkohol [2]: teilweise
Löslichkeit im Azeton [2]: teilweise
Löslichkeit im Diethylether [2]: unlöslich
Löslichkeit in Wasser [2]: gut löslich
Lagerbeständigkeit [3]: lagerbeständig
LD50 [4]: 260 mg/kg
Toxizität für Warmblüter (weißen Mäusen; result in words): wenig toxisch
Hemmung des Myzeliums am 5. Tag des Wachstums, Cladosporium resinae (Cladosporium resinae; [8]): 100%
Hemmung des Myzeliums am 5. Tag des Wachstums, Cladosporium resinae (Cladosporium resinae; [9]): 100%
Hemmung des Myzeliums am 5. Tag des Wachstums, Cladosporium resinae (Cladosporium resinae; [10]): 100%
Hemmung des Myzeliums am 5. Tag des Wachstums, Cladosporium resinae (Cladosporium resinae; [11]): 100%
Hemmung des Myzeliums am 5. Tag des Wachstums, Acremonium charticola (Acremonium charticola; [8]): 100%
Hemmung des Myzeliums am 5. Tag des Wachstums, Acremonium charticola (Acremonium charticola; [9]): 100%
Hemmung des Myzeliums am 5. Tag des Wachstums, Acremonium charticola (Acremonium charticola; [10]): 100%
Hemmung des Myzeliums am 5. Tag des Wachstums, Acremonium charticola (Acremonium charticola; [11]): 100%
Hemmung des Myzeliums am 5. Tag des Wachstums, Walrotiela subiculesa (Walrotiela subiculesa; [8]): 100%
Hemmung des Myzeliums am 5. Tag des Wachstums, Walrotiela subiculesa (Walrotiela subiculesa; [9]): 100%
Hemmung des Myzeliums am 5. Tag des Wachstums, Walrotiela subiculesa (Walrotiela subiculesa; [10]): 100%
Hemmung des Myzeliums am 5. Tag des Wachstums, Walrotiela subiculesa (Walrotiela subiculesa; [11]): 100%
Hemmung des Myzeliums am 5. Tag des Wachstums, Penicillium chrysogenum (Penicillium chrysogenum; [8]): 5%
Hemmung des Myzeliums am 5. Tag des Wachstums, Penicillium chrysogenum (Penicillium chrysogenum; [9]): 20%
Hemmung des Myzeliums am 5. Tag des Wachstums, Penicillium chrysogenum (Penicillium chrysogenum; [10]): 80%
Hemmung des Myzeliums am 5. Tag des Wachstums, Penicillium chrysogenum (Penicillium chrysogenum; [11]): 100%
Hemmung des Myzeliums am 5. Tag des Wachstums, Cladosporium cladosporioides [5, 8]: 100%
Hemmung des Myzeliums am 5. Tag des Wachstums, Cladosporium cladosporioides [5, 9]: 100%
Hemmung des Myzeliums am 5. Tag des Wachstums, Cladosporium cladosporioides [5, 10]: 100%
Hemmung des Myzeliums am 5. Tag des Wachstums, Cladosporium cladosporioides [5, 11]: 100%
Hemmung des Myzeliums am 5. Tag des Wachstums, Acremonium corvum (Acremonium corvum; [8]): 100%
Hemmung des Myzeliums am 5. Tag des Wachstums, Acremonium corvum (Acremonium corvum; [9]): 100%
Hemmung des Myzeliums am 5. Tag des Wachstums, Acremonium corvum (Acremonium corvum; [10]): 100%
Hemmung des Myzeliums am 5. Tag des Wachstums, Acremonium corvum (Acremonium corvum; [11]): 100%
Hemmung des Myzeliums am 5. Tag des Wachstums, Penicillium charlesii Smith [6, 8]: 25%
Hemmung des Myzeliums am 5. Tag des Wachstums, Penicillium charlesii Smith [6, 9]: 40%
Hemmung des Myzeliums am 5. Tag des Wachstums, Penicillium charlesii Smith [6, 10]: 90%
Hemmung des Myzeliums am 5. Tag des Wachstums, Penicillium charlesii Smith [6, 11]: 100%
Hemmung des Myzeliums am 5. Tag des Wachstums, Oidium (Oidium; [8]): 60%
Hemmung des Myzeliums am 5. Tag des Wachstums, Oidium (Oidium; [9]): 100%
Hemmung des Myzeliums am 5. Tag des Wachstums, Oidium (Oidium; [10]): 100%
Hemmung des Myzeliums am 5. Tag des Wachstums, Oidium (Oidium; [11]): 100%
Hemmung des Myzeliums am 5. Tag des Wachstums, Geotrichum candidum Link (Geotrichum candidum Link; [8]): 5%
Hemmung des Myzeliums am 5. Tag des Wachstums, Geotrichum candidum Link (Geotrichum candidum Link; [9]): 40%
Hemmung des Myzeliums am 5. Tag des Wachstums, Geotrichum candidum Link (Geotrichum candidum Link; [10]): 75%
Hemmung des Myzeliums am 5. Tag des Wachstums, Geotrichum candidum Link (Geotrichum candidum Link; [11]): 100%

Kupfer-N-(vinyloxyethyl)dithiocarbamat
Konzentration, bei der die Entwicklung aller untersuchten Pilze vollständig gehemmt wurde [7]: 0,15%
Konzentration der Salze der N-(vinyloxyethyl)dithiocarbaminsäure (100%), die das Wachstum der Bakterien am 5. Tag des Wachstums hemmen, p. Escherichiae (p. Escherichiae): 0,25%
Konzentration der Salze der N-(vinyloxyethyl)dithiocarbaminsäure (100%), die das Wachstum der Bakterien am 5. Tag des Wachstums hemmen, p.Micrococcus (p.Micrococcus): 0,25%
Konzentration der Salze der N-(vinyloxyethyl)dithiocarbaminsäure (100%), die das Wachstum der Bakterien am 5. Tag des Wachstums hemmen, p.Bacillus (p.Bacillus): 0,25%
Konzentration der Salze der N-(vinyloxyethyl)dithiocarbaminsäure (100%), die das Wachstum der Bakterien am 5. Tag des Wachstums hemmen, p.Pseudomonas (p.Pseudomonas): 0,25%
Löslichkeit im Alkohol [2]: teilweise löslich
Löslichkeit im Azeton [2]: teilweise löslich
Löslichkeit im Diethylether [2]: unlöslich
Löslichkeit im Dimethylsulfoxid ([2]; Dimethylsulfoxid): gut
Löslichkeit in Wasser [2]: unlöslich
Lagerbeständigkeit [3]: lagerbeständig
LD50 (weißen Mäusen; intraabdominale Einführung bei weißen Mäusen): 267 mg/kg
Hemmung des Myzeliums am 5. Tag des Wachstums, Cladosporium resinae (Cladosporium resinae; [12]): 43%
Hemmung des Myzeliums am 5. Tag des Wachstums, Cladosporium resinae (Cladosporium resinae; [13]): 34%
Hemmung des Myzeliums am 5. Tag des Wachstums, Cladosporium resinae (Cladosporium resinae; [14]): 100%
Hemmung des Myzeliums am 5. Tag des Wachstums, Acremonium charticola (Acremonium charticola; [12]): 100%
Hemmung des Myzeliums am 5. Tag des Wachstums, Acremonium charticola (Acremonium charticola; [13]): 43%
Hemmung des Myzeliums am 5. Tag des Wachstums, Acremonium charticola (Acremonium charticola; [14]): 100%
Hemmung des Myzeliums am 5. Tag des Wachstums, Walrotiela subiculesa (Walrotiela subiculesa; [12]): 100%
Hemmung des Myzeliums am 5. Tag des Wachstums, Walrotiela subiculesa (Walrotiela subiculesa; [13]): 30%
Hemmung des Myzeliums am 5. Tag des Wachstums, Walrotiela subiculesa (Walrotiela subiculesa; [14]): 100%
Hemmung des Myzeliums am 5. Tag des Wachstums, Penicillium chrysogenum (Penicillium chrysogenum; [12]): 24%
Hemmung des Myzeliums am 5. Tag des Wachstums, Penicillium chrysogenum (Penicillium chrysogenum; [13]): 4%
Hemmung des Myzeliums am 5. Tag des Wachstums, Penicillium chrysogenum (Penicillium chrysogenum; [14]): 85%
Hemmung des Myzeliums am 5. Tag des Wachstums, Cladosporium cladosporioides [5, 12]: 100%
Hemmung des Myzeliums am 5. Tag des Wachstums, Cladosporium cladosporioides [5, 13]: 45%
Hemmung des Myzeliums am 5. Tag des Wachstums, Cladosporium cladosporioides [5, 14]: 100%
Hemmung des Myzeliums am 5. Tag des Wachstums, Acremonium corvum (Acremonium corvum; [12]): 100%
Hemmung des Myzeliums am 5. Tag des Wachstums, Acremonium corvum (Acremonium corvum; [13]): 50%
Hemmung des Myzeliums am 5. Tag des Wachstums, Acremonium corvum (Acremonium corvum; [14]): 100%
Hemmung des Myzeliums am 5. Tag des Wachstums, Penicillium charlesii Smith [6, 12]: 56%
Hemmung des Myzeliums am 5. Tag des Wachstums, Penicillium charlesii Smith [6, 13]: 24%
Hemmung des Myzeliums am 5. Tag des Wachstums, Penicillium charlesii Smith [6, 14]: 92%
Hemmung des Myzeliums am 5. Tag des Wachstums, Oidium (Oidium; Konzentration des Stoffes 0,1 %): 67%
Hemmung des Myzeliums am 5. Tag des Wachstums, Oidium (Oidium; [13]): 0%
Hemmung des Myzeliums am 5. Tag des Wachstums, Oidium (Oidium; [14]): 100%
Hemmung des Myzeliums am 5. Tag des Wachstums, Geotrichum candidum Link (Geotrichum candidum Link; [12]): 50%
Hemmung des Myzeliums am 5. Tag des Wachstums, Geotrichum candidum Link (Geotrichum candidum Link; [13]): 3%
Hemmung des Myzeliums am 5. Tag des Wachstums, Geotrichum candidum Link (Geotrichum candidum Link; [14]): 100%
